Assays:
[1] = target: T1, acetylcholinesterase (Torpedo marmorata, UniProt P07692); test: Analysis of pesticides in salad extracts by inhibition of acetylcholinesterase (Table IX); assay type: biochemical; conditions: read-out: % relative activity
T1 construct: from tissue
Description: The analysis of the presence of these inhibitors was done following the protocol described in example 1.

[2] = target: T2, torpedo fish AchE (Torpedo marmorata, UniProt P07692); test: Analysis of 5 pesticides dissolved in water by inhibition of immobilized AchE (Table VIII); assay type: biochemical; conditions: for times less sensitivity of detection: compared with Naled, Carbofuran, Paraoxon; for sensitivity of the test (in words): in water, gelatin-trehalose protected
T2 construct: from tissue
T2 sequence (P07692 25-590): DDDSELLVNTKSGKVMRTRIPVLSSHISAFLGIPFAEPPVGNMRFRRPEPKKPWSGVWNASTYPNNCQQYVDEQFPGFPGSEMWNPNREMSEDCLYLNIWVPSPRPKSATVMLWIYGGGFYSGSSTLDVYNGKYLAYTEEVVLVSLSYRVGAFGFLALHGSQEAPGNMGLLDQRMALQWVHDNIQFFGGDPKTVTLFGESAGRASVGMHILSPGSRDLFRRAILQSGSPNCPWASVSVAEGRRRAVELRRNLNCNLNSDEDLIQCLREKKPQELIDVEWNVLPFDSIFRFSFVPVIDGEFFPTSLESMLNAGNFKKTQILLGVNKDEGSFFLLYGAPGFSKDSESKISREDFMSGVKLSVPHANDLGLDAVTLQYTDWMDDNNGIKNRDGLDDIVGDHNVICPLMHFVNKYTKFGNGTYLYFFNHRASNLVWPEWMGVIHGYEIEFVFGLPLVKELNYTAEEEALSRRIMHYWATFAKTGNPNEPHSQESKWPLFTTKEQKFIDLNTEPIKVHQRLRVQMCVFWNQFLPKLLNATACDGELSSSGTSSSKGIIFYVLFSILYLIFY

[3] = tested on: Horseradish peroxidase; test: Stability of immobilized peroxidase under gelatin or albumin film containing trehalose, 7 days dry storage (Table II); assay type: physicochemical; conditions: included in the gelifying film
Description: Horseradish peroxidase (0.2 mg/ml) was used to sensitize the wells of microtitration plates, following the method described in example I. After sensitization during one night at 4° C., the wells were covered either with a warm solution (47° C. for the solubilisation, 37° C. for the pouring into the wells) of a 5% gelatin solution or a 5% albumin solution, both containing trehalose in decreasing concentrations starting from a concentration of 8 mg/ml. Triton X100 at a concentration of 0.04% was added to the albumin solution, as a wetting agent. The wells were immediately emptied without rinsing and were thereafter placed at 4° C. and 37° C. duiring 7 days in a dry incubator. The remaining peroxidase activity was measured by addition to the wells of 100 μl of a solution of tetramethylbenzidine and hydrogen peroxide in a citrate-phosphate buffer at pH 5.5. The blue coloration obtained changes to yellow with sulfuric acid (100 μl, 0.5 N), added to stop the enzymatic reaction. The results are given in adsorbances read at 450 nm (table II)

[4] = tested on: Acetylcholinesterase, extracted from torpedo fish; test: Stability of acetylcholinesterase-sensitized wells: residual enzymatic activity after 7 days dry storage (Table I); assay type: physicochemical
Description: After a night of incubation at 4° C., the wells were rinsed and thereafter subjected to the following analysis:
1. Control (nothing added)
2. Rinsing of the wells with buffered water (0.05 M phosphate pH 7,00) containing 15% trehalose.
3. Covering of the wells with buffered water (0.05 M phosphate pH 7,00) containing 5% gelatin (240 bloom), followed by the elimination of the gelatin without rinsing
4. Covering of the wells with buffered water (0.05 M phosphate pH 7,00) containing 5% gelatin (240 bloom) and 15% trehalose, followed by an elimination of the gelatin witout rinsing.
The gelatin was solubilized by heating at 47° C., then cooling down to 37° C. before dispensing in the wells. The wells of the microtitration plates handled in this way were placed at 4° C., 37° C. and 50° C. during 7 days in a dry incubator, then analyzed for the remaining enzymatic activity, according to Ellman's method. Results are given in adsorbances read at 412 nm (table I).

[5] = tested on: acetylcholinesterase; test: Analysis of a drug in spiked serum by inhibition of acetylcholinesterase; assay type: biochemical; conditions: serum of a healthy subject
Description: (§1) The serum of a healthy subject was spiked with increasing concentrations of pyridostygmin and thereafter analysed for the enzymatic activity of acetylcholinesterase, following the protocol already outlined in former examples. One sees in graph 1 that the detection Of the inhibitor of AchE goes down to 1 to 2 μg/ml of this drug in serum.
as §1, with “neostygmin” for “pyridostygmin”, “2” for “1”, “of this” for “Of the”, “50 ng/ml” for “1 to 2 μg/ml”
as §1, with “A” for “The”, “eserin” for “pyridostygmin”, “3” for “1”, “of this” for “Of the”, “100 ng/ml” for “1 to 2 μg/ml”

T1 sequence (P07692 25-590): as above

Structure (SMILES) | % of Residual activity ([2]; 10 μg/litre in water) [%] | % of Residual activity ([2]; 50 μg/litre in water) [%] | % of Residual activity ([2]; 100 μg/litre in water) [%] | % of Residual activity ([2]; 1000 μg/litre in water) [%] | % of Residual activity ([2]; 01 μg/litre in water) [%] | sensitivity of the test (in words) [2] | also measured
CNC(=O)Oc1cccc2ccccc12 [Carbaryl] | 80 | 61 | 44 | 18 | – | – | activity at 0.01 µg/mL [1]: 80%; activity at 0.05 µg/mL [1]: 61%; activity at 0.1 µg/mL [1]: 51%; activity at 0.5 µg/mL [1]: 26%; activity at 1 µg/mL [1]: 28%; times less sensitivity of detection [2]: 100 times
COP(=O)(OC)OC=C(Cl)Cl [Dichlorvos] | 80 | 60 | 49 | 3 | – | – | times less sensitivity of detection [2]: 100 times
CCOP(=O)(OCC)Oc1ccc([N+](=O)[O-])cc1 [Paraoxon] | 40 | 0 | 0 | 0 | 80 | followed closely | –
OC[C@H]1O[C@H](O[C@H]2O[C@H](CO)[C@@H](O)[C@H](O)[C@H]2O)[C@H](O)[C@@H](O)[C@@H]1O [Trehalose, α-D glucopyranosyl-α-D-glucopyranoside] | – | – | – | – | – | – | concentration of trehalose sufficient and necessary to stabilize the dry enzyme [3]: Two; Residual enzymatic activity after storage of AchE-sensitized wells during 7 days ([4]; 4° C.): 1.88 adsorbances read at 412 nm; Residual enzymatic activity after storage of AchE-sensitized wells during 7 days ([4]; 37° C.): 0.97 adsorbances read at 412 nm; Residual enzymatic activity after storage of AchE-sensitized wells during 7 days ([4]; 50° C.): 0.12 adsorbances read at 412 nm
CN(C)C(=O)Oc1cccc([N+](C)(C)C)c1 [neostygmin] | – | – | – | – | – | – | detection of this inhibitor of AchE goes down to [5]: 50 ng/mL
COP(=O)(OC)OC(Br)C(Cl)(Cl)Br (centres unmarked) [Naled] | 11 | 0 | 0 | 0 | 73 | most sensitive | activity at 0.001 µg/mL [1]: 90%; activity at 0.01 µg/mL [1]: 63%; activity at 0.05 µg/mL [1]: 20%; activity at 0.1 µg/mL [1]: 9%; activity at 1 µg/mL [1]: 3%
CNC(=O)Oc1cccc2c1OC(C)(C)C2 [Carbofuran] | 35 | 20 | 18 | 14 | 73 | most sensitive | –
CNC(=O)Oc1ccc2c(c1)[C@]1(C)CCN(C)[C@@H]1N2C [eserin] | – | – | – | – | – | – | detection of this inhibitor of AchE goes down to [5]: 100 ng/mL
